The record followed here is patent US9139609B2, “C-4″ position substituted macrolide derivative” (priority 2011, dated 2015).

What all share (format): cell-based
The subject of test [1] is Streptococcus pneumoniae ATCC700904. As to the kind of experiment: In vitro antibacterial activity, microbroth dilution method (CLSI method), test bacterium C (erythromycin resistant). The settings on record: read-out: MIC (minimum inhibitory concentration), test bacterium C. How it is done: (§1) In vitro antibacterial activities of the compounds of the present invention against various test bacteria were measured according to the microbroth dilution method (CLSI method). Among them, the bacteria C, D and E are erythromycin resistant bacteria. The MIC values (minimum inhibitory concentration, μg/ml) for the test bacteria A and B are exemplified in Table 22.
On the technique in general: Broth dilution looks for growth in wells or tubes with falling amounts of substance.

Test [2] relates to Mycoplasma pneumoniae MSC04933. Description: In vitro antibacterial activity, microbroth dilution method (CLSI method), test bacterium E (erythromycin resistant). Conditions: read-out: MIC (minimum inhibitory concentration), test bacterium E. The method, then: as §1
Test [3] relates to Streptococcus pyogenes M808. Description: In vitro antibacterial activity, microbroth dilution method (CLSI method), test bacterium D (erythromycin resistant). Conditions: read-out: MIC (minimum inhibitory concentration), test bacterium D. The method, then:
as §1

≈ marks a conversion by molar mass, not a printed value.

On to `CC[C@H]1OC(=O)[C@H](C)[C@@H](O[C@H]2C[C@@](C)(OC)[C@@](O)(CN(C)CCN(C(C)C)C(C)C)[C@H](C)O2)[C@H](C)[C@@H](O[C@@H]2O[C@H](C)C[C@H](N(C)C)[C@H]2O)[C@@](C)(OC)C[C@@H](C)C(=O)[C@H](C)[C@H]2N(CCNS(C)(=O)=O)C(=O)O[C@]12C` [Example 404], for which the MIC in test [1] was 0.12 to 0.25 µg/mL (≈ 0.113 to 0.235 µM); in test [2] it was no more than 0.25 µg/mL; in test [3], no more than 2 µg/mL.

Regarding `CC[C@H]1OC(=O)[C@H](C)[C@@H](O[C@H]2C[C@@](C)(OC)[C@@](O)(CN(C)CCN(C)C(C)(C)c3ccccc3OC)[C@H](C)O2)[C@H](C)[C@@H](O[C@@H]2O[C@H](C)C[C@H](N(C)C)[C@H]2O)[C@@](C)(OC)C[C@@H](C)[C@@H]2NCCN3C(=O)O[C@@]1(C)[C@H]3[C@@H]2C` [Example 340], the figures for the MIC in test [1], in test [2] and in test [3] were 0.12 to 0.25 µg/mL (≈ 0.114 to 0.238 µM), no more than 0.25 µg/mL and no more than 2 µg/mL, respectively.

Turning to `CC[C@H]1OC(=O)[C@H](C)[C@@H](O[C@H]2C[C@@](C)(OC)[C@@](O)(CN(C)CCN(CC)CC)[C@H](C)O2)[C@H](C)[C@@H](O[C@@H]2O[C@H](C)C[C@H](N(C)C)[C@H]2O)[C@@](C)(OC)C[C@@H](C)C(=NO)[C@H](C)[C@H]2N(CCNS(C)(=O)=O)C(=O)O[C@]12C` [Example 334], the MIC in test [1] is 0.12 to 0.25 µg/mL (≈ 0.114 to 0.238 µM); in test [2], no more than 0.25 µg/mL; in test [3], 4 to 8 µg/mL (≈ 3.8 to 7.61 µM).

`CC[C@H]1OC(=O)[C@H](C)[C@@H](O[C@H]2C[C@@](C)(OC)[C@@](O)(CN(C)CCN(C)C(C)(C)c3ccccc3OC)[C@H](C)O2)[C@H](C)[C@@H](O[C@@H]2O[C@H](C)C[C@H](N(C)C)[C@H]2O)[C@@](C)(OC)C[C@@H](C)C2=NCCN3C(=O)O[C@@]1(C)[C@H]3[C@H]2C` [Example 338]: the MIC in test [1] is 0.12 to 0.25 µg/mL (≈ 0.115 to 0.239 µM); in test [2] it was no more than 0.25 µg/mL; in test [3], no more than 2 µg/mL.

As to `CC[C@H]1OC(=O)[C@H](C)[C@@H](O[C@H]2C[C@@](C)(OC)[C@@](O)(CN(C)CCN(CC)CC)[C@H](C)O2)[C@H](C)[C@@H](O[C@@H]2O[C@H](C)C[C@H](N(C)C)[C@H]2O)[C@@](C)(OC)C[C@@H](C)C(=O)[C@H](C)[C@H]2NC(=O)O[C@@]21C` [Example 299], the MIC in test [1] was 0.12 to 0.25 µg/mL (≈ 0.131 to 0.273 µM); in test [2], 0.5 to 1 µg/mL (≈ 0.546 to 1.09 µM); in test [3], no less than 16 µg/mL.

As for `CC[C@H]1OC(=O)[C@H](C)[C@@H](O[C@H]2C[C@@](C)(OC)[C@@](O)(CN(C)CCN(C)C(C)(C)c3ccccc3OC)[C@H](C)O2)[C@H](C)[C@@H](O[C@@H]2O[C@H](C)C[C@H](N(C)C)[C@H]2O)[C@@]2(C)C[C@@H](C)C3(NCCN4C(=O)O[C@@]1(C)[C@H]4[C@H]3C)O2` [Example 341], the MIC in test [1] was 0.12 to 0.25 µg/mL (≈ 0.116 to 0.242 µM); in test [2], no more than 0.25 µg/mL; in test [3], no more than 2 µg/mL.

As for `CC[C@H]1OC(=O)[C@H](C)[C@@H](O[C@H]2C[C@@](C)(OC)[C@@](O)(CN(C)CCN(C)C)[C@H](C)O2)[C@H](C)[C@@H](O[C@@H]2O[C@H](C)C[C@H](N(C)C)[C@H]2O)[C@@](C)(OC)C[C@@H](C)C(=O)[C@H](C)[C@H]2C(SCCCn3cnc4c(N)ncnc43)C(=O)O[C@@]21C` (stereo partly drawn) [Example 364], the MIC in test [1] is no more than 0.06 µg/mL; in test [2], no more than 0.25 µg/mL; in test [3], no more than 2 µg/mL.

Regarding `CC[C@H]1OC(=O)[C@H](C)[C@@H](O[C@H]2C[C@@](C)(OC)[C@@](O)(CN(C)CCN(C)C(C)(C)c3ccccc3OC)[C@H](C)O2)[C@H](C)[C@@H](O[C@@H]2O[C@H](C)C[C@H](N(C)C)[C@H]2O)[C@@](C)(OC(N)=O)C[C@@H](C)C(=O)[C@H](C)[C@H]2NC(=O)O[C@@]21C` [Example 342], the MIC in test [1] is 0.12 to 0.25 µg/mL (≈ 0.114 to 0.238 µM); in test [2], no more than 0.25 µg/mL; in test [3] it was no more than 2 µg/mL.
